Target: T1, NQO1 (Homo sapiens, UniProt P15559)
T1 construct: endogenous in cells; host or cells: OC3-IV2 (human oral squamous cell carcinoma), cytosolic fraction / lysate supernatant
Test: NQO1 enzymatic activity assay (substrate reduction with NADH and WST1)
Type: biochemical
Settings: cytosolic fractions of OC3-IV2 cells; isoplumbagin 5 μM and 10 μM, menadione 1X and 2X
Procedure: FIG. 4 proves that isoplumbagin is a substrate of NQO1. The cytosolic fractions of OC3-IV2 cells were used for the NQO1 enzymatic activity assay. The NQO1 enzyme activity was calculated by measuring the simultaneous reduction of menadione or isoplumbagin with cofactor NADH and WST1 (a highly sensitive tetrazolium reagent) which leads to increased absorbance at 450 nm. NQO1 activity assay kit (#ab184867) was purchased from Abcam (Cambridge, Mass., USA). OC3-IV2 cells were lysed with 1X extraction buffer containing 1 mM phenylmethylsulfonyl fluoride (PMSF) for 15 min on ice, and then centrifuged at 17,000×g at 4° C. for 20 min. The supernatant was collected and then the protein concentration of each sample was determined by BCA assays (Santa Cruz Biotechnology). Diluted sample and reaction buffer were added into 96-wells plate containing menadione (1X and 2X) or different concentrations of isoplumbagin (5 μM and 10 μM) with cofactor NADH and WST1. The absorbance of reduced WST1 was measured at 450 nm wavelengths by a spectrophotometer. Data from three independent experiments are presented as mean ±SEM (*P<0.05 compared with no substrate, paired Student's t-test).

T1 sequence (P15559 whole entry): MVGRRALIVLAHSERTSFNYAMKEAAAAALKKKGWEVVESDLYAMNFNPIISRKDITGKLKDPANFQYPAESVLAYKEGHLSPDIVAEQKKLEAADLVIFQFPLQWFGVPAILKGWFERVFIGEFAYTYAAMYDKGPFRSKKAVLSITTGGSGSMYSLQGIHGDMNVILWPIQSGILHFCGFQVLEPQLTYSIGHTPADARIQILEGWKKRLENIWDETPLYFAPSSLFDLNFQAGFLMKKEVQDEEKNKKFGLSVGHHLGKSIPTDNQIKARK

## CC1=CC(=O)c2ccccc2C1=O [menadione, reference compound]
  substrate of NQO1 (reduction with NADH and WST1, absorbance at 450 nm): substrates of NQO1
